# Assay results published in paper PMC7168327, “Designed Antimicrobial Peptides for Topical Treatment of Antibiotic Resistant Acne Vulgaris” (Antibiotics, 2020).
# Several values for one entry are separate records, joined by “and”; a condition that tells them apart may be missing. Equal entries are not always repeated. Where two headings read alike, the source gives them in different places. Bridge positions count the residues as written; N and C are the ends. Square brackets hold non-standard residues; d marks the D form. Peptide text beside a SMILES is read from it. Orn = NCCC[C@H](N)C(=O)O
# What was measured:
# C. acnes ATCC11827 = assay type: cell-based, Cutibacterium acnes
# Protocol: (§1) The ten antibiotic resistant C. acnes clinical isolates were acquired from BEI resources with the two reference strains obtained from American Type Culture Collection (ATCC, Manassas, VA, USA). C. acnes is a relatively slow-growing, typically aerotolerant anaerobic so all in vitro C. acnes experiments were performed under anaerobic conditions.
# (§2) Single colonies were inoculated in Reinforced Clostridium Medium (RCM) broth supplemented with sodium thioglycolate and incubated at 37 °C, with shaking at 200 rpm, for 2 or 3 days to reach logarithmic growth (OD600nm = 1.0). Each C. acnes (1 × 10^6 CFU per mL) was incubated with dAMP or clindamycin at two-fold serial dilutions (0.5–32 μg per mL) in RCM on a 96-well microplate for 48 h. Three replicas were included for each test article concentration. Bacterial growth was measured by optical density at 600 nm to determine the MIC for each dAMP applied.
# C. acnes ATCC6919 = assay type: cell-based, Cutibacterium acnes
# Protocol: as §1, §2
# C. acnes HL007PA1 = assay type: cell-based, Cutibacterium acnes
# Protocol: as §1, §2
# C. acnes HL013PA1 = assay type: cell-based, Cutibacterium acnes
# Protocol: as §1, §2
# C. acnes HL038PA1 = assay type: cell-based, Cutibacterium acnes
# Protocol: as §1, §2
# C. acnes HL043PA1 = assay type: cell-based, Cutibacterium acnes
# Protocol: as §1, §2
# C. acnes HL043PA2 = assay type: cell-based, Cutibacterium acnes
# Protocol: as §1, §2
# C. acnes HL045PA1 = assay type: cell-based, Cutibacterium acnes
# Protocol: as §1, §2
# C. acnes HL053PA1 = assay type: cell-based, Cutibacterium acnes
# Protocol: as §1, §2
# C. acnes HL056PA1 = assay type: cell-based, Cutibacterium acnes
# Protocol: as §1, §2
# C. acnes HL072PA1 = assay type: cell-based, Cutibacterium acnes
# Protocol: as §1, §2
# C. acnes HL082PA2 = assay type: cell-based, Cutibacterium acnes
# Protocol: as §1, §2
# [1] = system: ten C. acnes clinical isolates and two C. acnes ATCC reference strains; assay type: cell-based, Cutibacterium acnes; conditions: for in vitro anti-bacterial activity against the C. acnes bacterial strains (in words): 0.5–32 μg/mL concentration range evaluated
# Protocol: as §1, §2
# [2] = system: bioluminescent human immortalized keratinocytes (HaCaT); assay: Mammalian cytotoxicity, bioluminescent human keratinocytes; assay type: cell-based; conditions: for EC50, concentration required to kill 50% of human keratinocytes: 8 h
# Protocol: (§3) Noninvasive and real-time monitoring of mammalian cytotoxicity to assess the potential skin toxicity of the dAMPs was evaluated using bioluminescent human immortalized keratinocytes (HaCaT, AddexBio, San Diego, CA, USA). The bioluminescent variant of HaCaT was constructed by transfection with a luciferase gene (RediFect Red-Fluc-Puromycin, Cat# CL596002). Keratinocytes (1 × 10^4 cells, 100 μL) were plated in 96-well black-walled plates. The candidate dAMPs were 2-fold serially diluted from 1024 µg/mL in growth medium supplemented with 150 µg/mL D-luciferin. Each concentration was performed in triplicate, with the final volume being 200 μL. Imaging was performed at select times (0, 15, and 30 min and 1, 3, 5, and 8 h) after the addition of the dAMP, and compared to concurrently run vehicle-control, using an IVIS Lumina imaging system (Caliper Life Sciences, Inc., Hopkinton, MA, USA). For imaging, the 96-well plate was positioned on the stage (12.5-cm field of view), with an open emission filter, binning of 4, and f-stop 1 and a 1-min exposure time. Data analysis was performed using the Living Image software program (version 4.3, Caliper Life Sciences, Inc.). The dAMP concentrations required to kill 10% and 50% of keratinocytes were determined using GraphPad Prism 7 (GraphPad Software, San Diego, CA, USA).
# [3] = system: C. acnes HL043PA2 compared to human keratinocytes; assay type: cell-based
# Protocol: In evaluating the clinical utility of each of the candidate dAMPs for C. acnes treatment, the Therapeutic Index was determined. The Therapeutic Index is defined as the ratio of concentration at which the dAMP is active against the prokaryotic C. acnes pathogen without inducing cytotoxic damage to the surrounding mammalian cells. The EC10 and EC50 doses, defined as the concentrations required to kill 10% and 50% respectively of human keratinocytes following 8 h incubation with each of the Riptide dAMPs, are tabulated and graphed in Table 2 and Figure 3, respectively. The larger the Therapeutic Index, the greater the specificity of the dAMP for destroying C. acnes cells.
# as §2, §3
# [4] = ten clinical isolates and two ATCC reference strains, 48 h
SMILES,"MIC (C. acnes ATCC11827; ATCC11827, 48 h) [µg/mL]","MIC (C. acnes ATCC6919; ATCC6919, 48 h) [µg/mL]","MIC (C. acnes HL007PA1; HL007PA1, 48 h) [µg/mL]","MIC (C. acnes HL013PA1; HL013PA1, 48 h) [µg/mL]","MIC (C. acnes HL038PA1; HL038PA1, 48 h) [µg/mL]","MIC (C. acnes HL043PA1; HL043PA1, 48 h) [µg/mL]","MIC (C. acnes HL043PA2; HL043PA2, 48 h) [µg/mL]","MIC (C. acnes HL045PA1; HL045PA1, 48 h) [µg/mL]","MIC (C. acnes HL053PA1; HL053PA1, 48 h) [µg/mL]","MIC (C. acnes HL056PA1; HL056PA1, 48 h) [µg/mL]","MIC (C. acnes HL072PA1; HL072PA1, 48 h) [µg/mL]","MIC (C. acnes HL082PA2; HL082PA2, 48 h) [µg/mL]",in vitro anti-bacterial activity against the C. acnes bacterial strains (in words) [1],"EC50, concentration required to kill 50% of human keratinocytes [2] [µg/mL]",Therapeutic Index (EC50 / MIC) ([3]; 8 h),"MIC values against all C. acnes isolates [1, 4] [µg/mL]",Therapeutic Index (EC10 / MIC) ([3]; 8 h),other results
CC[C@H](C)[C@H](NC(=O)[C@H](CCCN)NC(=O)[C@H](CC(C)C)NC(=O)[C@H](CCCNC(=N)N)NC(=O)[C@@H](N)Cc1ccccc1)C(=O)N[C@@H](CCCCN)C(=O)N[C@@H](C)C(=O)N[C@@H](CCCN)C(=O)N[C@@H](CC(C)C)C(=O)N[C@@H](CCCCN)C(=O)N[C@H](C(=O)N[C@@H](CCCN)C(=O)N[C@H](C(=O)N[C@@H](CCCNC(=N)N)C(=O)N[C@@H](Cc1ccccc1)C(=O)N[C@@H](CCCCN)C(=O)N[C@@H](CC(C)C)C(N)=O)[C@@H](C)CC)C(C)C [RP568] (H-FRL[Orn]IKA[Orn]LKV[Orn]IRFKL-NH2),>32,>32,>32,>32,>32,>32,>32,>32,>32,>32,>32,>32,negligible activity,229,7.16,,,
CC[C@H](C)[C@H](NC(=O)[C@H](CCCN)NC(=O)[C@H](C)NC(=O)[C@H](CCCN)NC(=O)[C@H](CC(C)C)NC(=O)[C@H](CCCN)NC(=O)[C@@H](NC(=O)[C@H](CCCN)NC(=O)[C@@H](NC(=O)[C@H](CCCN)NC(=O)[C@H](C)NC(=O)[C@H](CCCN)NC(=O)[C@H](CC(C)C)NC(=O)[C@H](CCCN)NC(=O)[C@@H](N)Cc1ccccc1)[C@@H](C)CC)C(C)C)C(=O)N[C@@H](CCCN)C(=O)N[C@@H](CC(C)C)C(N)=O [RP554] (H-F[Orn]L[Orn]A[Orn]I[Orn]V[Orn]L[Orn]A[Orn]I[Orn]L-NH2),8,4,4,2 to 4,8,4,8,4,4,4,8,8,most active,31,3.88,2 to 8,2.38,
"CC[C@H](C)[C@@H]1NC(=O)CNC(=O)[C@H](CCCCN)NC(=O)[C@H](Cc2ccc(O)cc2)NC(=O)[C@@H]2CSSC[C@H](NC1=O)C(=O)N[C@@H](Cc1ccccc1)C(=O)N[C@@H](CCCCN)C(=O)N[C@@H](CCCCN)C(=O)N[C@H](C(=O)N[C@@H](CCCCN)C(N)=O)CSSC[C@H](NC(=O)[C@H](Cc1ccccc1)NC(=O)[C@@H](N)CCCNC(=N)N)C(=O)N[C@@H](Cc1c[nH]c3ccccc13)C(=O)N[C@@H](CCCCN)C(=O)N[C@@H](C(C)C)C(=O)N2 [RP557] (H-RFCWKVCYKGICFKKCK-NH2; disulfide 3-16, 7-12)",,,,,,,,,,,,,most active,,,,,"MIC (C. acnes ATCC11827; C. acnes ATCC11827, RCM broth, anaerobic, 1 × 10^6 CFU per mL, two-fold dilutions 0.5–32 μg/mL, 48 h, OD 600 nm, mean of three replicates): 8 µg/mL; MIC (C. acnes ATCC6919; C. acnes ATCC6919, RCM broth, anaerobic, 1 × 10^6 CFU per mL, two-fold dilutions 0.5–32 μg/mL, 48 h, OD 600 nm, mean of three replicates): 8 µg/mL; MIC (C. acnes HL007PA1; C. acnes HL007PA1, RCM broth, anaerobic, 1 × 10^6 CFU per mL, two-fold dilutions 0.5–32 μg/mL, 48 h, OD 600 nm, mean of three replicates): 8 µg/mL; MIC (C. acnes HL013PA1; C. acnes HL013PA1, RCM broth, anaerobic, 1 × 10^6 CFU per mL, two-fold dilutions 0.5–32 μg/mL, 48 h, OD 600 nm, mean of three replicates): 2 µg/mL; MIC (C. acnes HL038PA1; C. acnes HL038PA1, RCM broth, anaerobic, 1 × 10^6 CFU per mL, two-fold dilutions 0.5–32 μg/mL, 48 h, OD 600 nm, mean of three replicates): 8 µg/mL; MIC (C. acnes HL043PA1; C. acnes HL043PA1, RCM broth, anaerobic, 1 × 10^6 CFU per mL, two-fold dilutions 0.5–32 μg/mL, 48 h, OD 600 nm, mean of three replicates): 8 µg/mL; MIC (C. acnes HL043PA2; C. acnes HL043PA2 (multi-drug resistant), RCM broth, anaerobic, 1 × 10^6 CFU per mL, two-fold dilutions 0.5–32 μg/mL, 48 h, OD 600 nm, mean of three replicates): 8 µg/mL; MIC (C. acnes HL045PA1; C. acnes HL045PA1, RCM broth, anaerobic, 1 × 10^6 CFU per mL, two-fold dilutions 0.5–32 μg/mL, 48 h, OD 600 nm, mean of three replicates): 4 µg/mL; MIC (C. acnes HL053PA1; C. acnes HL053PA1, RCM broth, anaerobic, 1 × 10^6 CFU per mL, two-fold dilutions 0.5–32 μg/mL, 48 h, OD 600 nm, mean of three replicates): 4 µg/mL; MIC (C. acnes HL056PA1; C. acnes HL056PA1, RCM broth, anaerobic, 1 × 10^6 CFU per mL, two-fold dilutions 0.5–32 μg/mL, 48 h, OD 600 nm, mean of three replicates): 4 µg/mL; MIC (C. acnes HL072PA1; C. acnes HL072PA1, RCM broth, anaerobic, 1 × 10^6 CFU per mL, two-fold dilutions 0.5–32 μg/mL, 48 h, OD 600 nm, mean of three replicates): 8 µg/mL; MIC (C. acnes HL082PA2; C. acnes HL082PA2, RCM broth, anaerobic, 1 × 10^6 CFU per mL, two-fold dilutions 0.5–32 μg/mL, 48 h, OD 600 nm, mean of three replicates): 2 µg/mL; MIC values against all C. acnes isolates ([1]; span over ten antibiotic resistant isolates and two ATCC reference strains): 2 to 8 µg/mL; viability of human keratinocytes ([2]; 8 h incubation at 256 μg/mL, bioluminescent HaCaT): greater than 80%; EC10, concentration required to kill 10% of human keratinocytes ([2]; bioluminescent HaCaT, 1 × 10^4 cells/well, 8 h incubation, 2-fold dilutions from 1024 µg/mL, triplicate, IVIS imaging, GraphPad Prism 7): 246 µg/mL; Therapeutic Index (EC10 / MIC) ([3]; keratinocyte EC10 (8 h) versus MIC against HL043PA2 C. acnes): 30.8; Therapeutic Index (EC50 / MIC) ([3]; keratinocyte EC50 (8 h) versus MIC against HL043PA2 C. acnes): 35 and 35.1"
C[C@H](NC(=O)[C@H](Cc1ccccc1)NC(=O)[C@H](C)NC(=O)[C@H](Cc1ccccc1)NC(=O)[C@H](CCCN)NC(=O)[C@H](C)NC(=O)[C@H](Cc1ccccc1)NC(=O)[C@H](CCCN)NC(=O)[C@H](CCCN)NC(=O)[C@H](C)NC(=O)[C@H](Cc1ccccc1)NC(=O)[C@H](CCCN)NC(=O)[C@H](CCCN)NC(=O)[C@H](Cc1ccccc1)NC(=O)[C@H](CCCN)NC(=O)[C@H](CCCN)NC(=O)[C@H](C)NC(=O)[C@H](Cc1ccccc1)NC(=O)[C@H](CCCN)NC(=O)[C@H](CCCN)NC(=O)[C@H](C)NC(=O)[C@@H](N)Cc1ccccc1)C(=O)N[C@@H](Cc1ccccc1)C(N)=O [RP444] (H-FA[Orn][Orn]FA[Orn][Orn]F[Orn][Orn]FA[Orn][Orn]FA[Orn]FAFAF-NH2),8,2,4,4,4,4,8,4,4,4,8,2,most active,20,2.5,2 to 8,1.63,
